Experimental data published in US11001563B2, “SSAO inhibitor” (SHANDONG DANHONG PHARMACEUTICAL CO., LTD., priority 2017, dated 2021).

Legend:
[1] = Compound pharmacokinetic evaluation in CD-1 mice; format: in vivo, CD-1 mouse; conditions: male, mouse, plasma
Experimental: Experimental purpose: compound pharmacokinetics were tested in CD-1 mice
CD-1 mouse (Male, 25-35 g, 6-9 weeks old, Shanghai Slack);
Experimental procedure: the pharmacological characteristics of the compound after intravenous and oral administration were tested in rodents by standard protocol, candidate compounds in the experiment was prepared into clear solutions to be administered to the mice in a single intravenous injection and orally. The intravenous and oral solvents were a certain proportion of an aqueous hydroxypropyl β-cyclodextrin solution or a physiological saline solution. Whole blood samples within 24 hours were collected, and centrifuged at 3000 g for 15 minutes, the supernatant was separated to obtain plasma samples, 4 times volume of acetonitrile solution containing internal standard was added to precipitate protein, centrifuging was conducted to take the supernatant, equal volume of water was added and centrifuging was conducted to take the supernatant to be sampled. The LC-MS/MS analysis method was used to quantitatively analyze the plasma concentration, and the pharmacokinetic parameters such as peak concentration, peak time, clearance rate, half-life, area under the drug concentration-time curve, and bioavailability were calculated.

VAP-1/SSAO = VAP-1/SSAO (Homo sapiens (Human), UniProt Q16853); experiment: VAP-1 cell activity assay (HUVEC or CHO cells transfected with VAP-1/pCDNA (3.1) plasmid, Amplex Red); format: cell-based; conditions: HUVEC or CHO cells transfected with VAP-1 plasmid; read-out: VAP-1/SSAO Cellular Inhibitory Activity IC50
VAP-1/SSAO, sequence (Q16853 whole entry): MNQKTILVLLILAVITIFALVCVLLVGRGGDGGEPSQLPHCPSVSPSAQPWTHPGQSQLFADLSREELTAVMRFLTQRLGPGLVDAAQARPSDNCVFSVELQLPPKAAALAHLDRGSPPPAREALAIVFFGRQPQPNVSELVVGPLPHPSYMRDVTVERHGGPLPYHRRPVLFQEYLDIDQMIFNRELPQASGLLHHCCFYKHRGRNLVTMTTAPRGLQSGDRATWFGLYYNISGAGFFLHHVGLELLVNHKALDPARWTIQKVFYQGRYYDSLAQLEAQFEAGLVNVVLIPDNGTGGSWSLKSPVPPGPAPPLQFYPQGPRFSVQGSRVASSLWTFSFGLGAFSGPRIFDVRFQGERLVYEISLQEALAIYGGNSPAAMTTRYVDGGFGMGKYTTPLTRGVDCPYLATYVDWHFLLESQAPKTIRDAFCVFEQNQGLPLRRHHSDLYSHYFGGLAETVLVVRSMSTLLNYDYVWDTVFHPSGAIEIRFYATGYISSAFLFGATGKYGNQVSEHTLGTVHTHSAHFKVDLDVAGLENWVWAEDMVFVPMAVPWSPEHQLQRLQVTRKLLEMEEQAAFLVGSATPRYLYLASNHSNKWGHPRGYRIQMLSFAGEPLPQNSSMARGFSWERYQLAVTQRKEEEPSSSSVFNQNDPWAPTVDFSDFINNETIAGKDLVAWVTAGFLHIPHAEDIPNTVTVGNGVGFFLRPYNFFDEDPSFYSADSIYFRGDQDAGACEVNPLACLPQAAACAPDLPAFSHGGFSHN
Experimental: The inhibition of the sample on VAP-1 cell activity was measured by using an Amplex® Red Monoamine Oxidase kit (Invitrogen #A12214).
The cultured HUVEC or CHO cells were plated into a 6-well plate at a density of 0.8 M/well, placed in a 37° C., 5% CO2 incubator for incubation for 24 hours, and then the cells was transferred with a Lipo2000 reagent and a VAP-1/pCDNA (3.1) plasmid, and liquid was changed for the cells after 5 hours (Lipo2000 was toxic to the cells); after 24 hours, the cells were digested and plated into 384-well plates with a density of 25 μl, 10000 cells/well, and liquid was replaced with medium without FBS for the cells after 6-7 hours, and the cell plates were incubated overnight at 37° C. in a 5% CO2 incubator.
1) Dilution of the compound: serial dilution in 4× gradient was carried out with 100% DMSO, 10 points were diluted, the starting concentration of the to-be-tested compound was 0.5 mM (final concentration was 1 μM); 100 nl of compound solution was transferred to a 384-well cell assay plate with ECHO. Negative control wells: 100 nl of DMSO; background control wells: 100 nl DMSO+25 μL medium.
2) The reaction was carried out in the dark at room temperature for 30 min.
3) Preparation of Amplex Red reagent+HRP+benzylamine substrate working solution: Amplex Red reagent+HRP+benzylamine substrate working solution (200 μM Amplex Red reagent+1 U/mL HRP+1 mM benzylamine): 45 μl of 20 mM Amplex Red reagent mother solution, 22.5 μl of 200 U/ml horseradish peroxidase (HRP) mother solution and 45 ul of 100 mM benzylamine were tanken and added to 4.3875 ml of 1× reaction buffer.
4) After 30 min, 25 μl of the substrate working solution was added to a 384-well plate, and a final concentration was 100 μM Amplex Red reagent+0.5 U/mL HRP+0.5 mM benzylamine, respectively.
5) The reaction was carried out in the dark at room temperature for 60 minutes, and the fluorescence value was measured by Envision: the excitation wave was 535 nm, and the emission wave was 590 nm.
6) Inhibition rate calculation formula: % inhibition rate=(1−(test hole minus background−positive control well minus background)/(negative control well minus background-positive control well minus background))*100
7) The data were analyzed with Prism. The IC50 of the sample against VAP-1 cells was calculated.

hERG potassium channel = hERG potassium channel (Homo sapiens (Human), UniProt Q12809); experiment: Inhibition test of hERG potassium ion channel (automatic patch clamp, CHO-hERG cells); format: cell-based
hERG potassium channel, sequence (Q12809 whole entry): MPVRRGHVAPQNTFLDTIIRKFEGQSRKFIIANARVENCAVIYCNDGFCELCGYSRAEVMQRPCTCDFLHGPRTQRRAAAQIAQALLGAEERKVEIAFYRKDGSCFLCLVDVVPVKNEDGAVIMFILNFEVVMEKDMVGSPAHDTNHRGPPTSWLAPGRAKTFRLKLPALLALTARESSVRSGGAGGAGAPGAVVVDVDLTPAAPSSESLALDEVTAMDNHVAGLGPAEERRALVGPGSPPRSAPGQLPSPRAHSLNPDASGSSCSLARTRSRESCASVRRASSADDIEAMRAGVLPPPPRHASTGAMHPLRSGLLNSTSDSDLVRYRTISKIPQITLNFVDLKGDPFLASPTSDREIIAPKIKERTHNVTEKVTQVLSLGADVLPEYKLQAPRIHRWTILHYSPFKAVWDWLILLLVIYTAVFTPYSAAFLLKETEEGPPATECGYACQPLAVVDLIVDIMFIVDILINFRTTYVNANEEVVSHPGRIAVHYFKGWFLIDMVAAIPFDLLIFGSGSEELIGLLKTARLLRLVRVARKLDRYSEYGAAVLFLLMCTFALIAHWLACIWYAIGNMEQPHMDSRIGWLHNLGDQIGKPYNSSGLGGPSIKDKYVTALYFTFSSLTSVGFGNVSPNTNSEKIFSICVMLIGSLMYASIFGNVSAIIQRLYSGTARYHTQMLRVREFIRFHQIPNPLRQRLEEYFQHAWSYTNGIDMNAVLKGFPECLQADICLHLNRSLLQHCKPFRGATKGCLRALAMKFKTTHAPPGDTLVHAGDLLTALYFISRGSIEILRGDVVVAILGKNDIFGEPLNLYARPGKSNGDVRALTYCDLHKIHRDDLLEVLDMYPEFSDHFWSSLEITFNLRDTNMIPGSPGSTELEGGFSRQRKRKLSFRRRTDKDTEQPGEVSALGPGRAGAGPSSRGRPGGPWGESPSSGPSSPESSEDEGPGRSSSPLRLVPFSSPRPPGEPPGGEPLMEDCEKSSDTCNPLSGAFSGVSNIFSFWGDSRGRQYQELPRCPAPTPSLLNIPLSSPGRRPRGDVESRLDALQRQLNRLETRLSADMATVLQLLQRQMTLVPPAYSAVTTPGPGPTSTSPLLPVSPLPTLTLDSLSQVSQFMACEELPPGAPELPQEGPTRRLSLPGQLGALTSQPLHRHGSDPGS
Experimental: The effect of the to-be-tested compound on the potassium ion channel of hERG was detected by a fully automatic patch clamp method.
The cells stably expressing hERG potassium channel used in the experiment were obtained from CHO-hERE of Aviva Biosciences, and CHO-hERG was cultured in 5% CO2 at 37° C.
CHO-hERG cells prepared for the experiment were cultured for at least two days, and the cell density reached 75% or more. Prior to the start of the experiment, cells were digested with TrypLE and then resuspended in extracellular fluid to collect the cells.
The to-be-tested compound and the positive control Amitriptyline were dissolved in DMSO to a certain concentration of the stock solution, and then diluted according to different gradients, and finally added to the extracellular fluid in a certain ratio, and diluted to a concentration to be measured. Visual inspection was performed to see if there was any precipitation before the start of the experiment. Finally, the concentration of DMSO in the to-be-tested solution and the positive control Amitriptyline should not exceed 0.3%.
The clamping potential was kept at −80 mv, first a voltage stimulation of −50 mv was given for 80 ms to record the cell leakage current value, and then was depolarized to +20 mv to be maintained for 4800 ms, the channel of hERG was open, and then repolarized to −50 mv to be maintained 5000 ms, hERG tail current was led out and recorded, and finally, the voltage was returned to the clamping potential of −80 mv to be maintained for 3100 ms. The above voltage stimulation was repeated once every 15000 ms.
hERG QPatch^HTX experiment was performed at room temperature. A whole cell protocol, a voltage stimulation protocol and a compound detection protocol were established on the software of QPatch Assay Software 5.2 (Sophion Bioscience).
First, 30 repeated set voltage stimulations were performed, which was the baseline area for subsequent analysis, followed by the addition of 5 μl of extracellular fluid, repeated for three times. The concentration of each compound added in sequence was repeated three times in a volume of 5 μl. The cells were incubated for at least 5 min at each test concentration. During the entire recording process, the indicators needed to meet the data analysis acceptance criteria. If the standard was not met, the cells would not be included in the analysis scope, and the compounds would be retested. The above recording process was automatically operated by Qpatch analysis software. […]
In each complete current record, based on the percentage of peak current in the negative control, the percent inhibition of the concentration of each compound can be calculated. […]

AUC ([1]; oral, read-out: Concentration Integral AUC): 6.49 µM·h | Tmax ([1]; oral, read-out: Peak Time Tmax): 30 min | bioavailability ([1]; po, read-out: Bioavailability F): 102% | Cmax ([1]; single intravenous injection and oral, read-out: Peak Concentration Cmax): 3.53 µM | IC50 (VAP-1/SSAO): 0.3 nM
Compound: Cl.Cn1nc(-c2ccc(OC/C(=C/F)CN)cc2)nc1C(F)F [WX126]
IC50 (hERG potassium channel; QPatch whole cell patch clamp, CHO-hERG, 0.24-30.00 μM): > 30000 nM | Inhibition of hERG potassium current (in words) (hERG potassium channel; conclusion statement): weak inhibition
